{
  "source": "patent US8916599B2",
  "about": "“1H-benz imidazole-5-carboxamides as anti-inflammatory agents” (Orexo AB, priority 2008, dated 2014)",
  "key": {"[1]": {"target": "T1, recombinant human mPGES-1 (Homo sapiens, UniProt O14684)", "T1 construct": "made in house; host or cells: Rosetta E. coli (microsomal/membrane fraction)", "T1 sequence (O14684 1-152)": "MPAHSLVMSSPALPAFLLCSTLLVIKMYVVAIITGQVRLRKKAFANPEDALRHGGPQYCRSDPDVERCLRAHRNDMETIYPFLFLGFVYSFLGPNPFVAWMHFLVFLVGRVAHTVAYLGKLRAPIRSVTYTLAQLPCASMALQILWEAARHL", "assay": "mPGES-1 inhibition test (microsomes, PGH2 substrate, HTRF detection of PGE2)", "assay_type": "biochemical", "details": "for inhibition at 1 µM: inhibition of mPGES-1 at 1 μM (marked in cell)", "method_in_brief": "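PGE2 formed from PGH2 in one minute by E. coli-expressed microsomal enzyme (pH 7.4, 2.5 mM GSH) was measured by competitive HTRF against a synthetic PGE2 standard curve. Compounds were preincubated 25 min at room temperature.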"}},
  "data": [
    {"compound": "O=C(Nc1ccc(Br)cc1)c1ccc2[nH]c(Nc3ccccc3OC(F)(F)F)nc2c1", "note": "[Example 106, 2-(2-Trifluoromethoxy-phenylamino)-1H-benzimidazole-5-carboxylic acid (4-bromo-phenyl)-amide]", "values": [
      {"measurement": "melting point", "result": "241 to 243", "unit": "°C"},
      {"measurement": "inhibition at 10 µM", "setting": "[1]; inhibition of mPGES-1 at 10 μM", "result": 82, "unit": "%"}
    ]},
    {"compound": "Cc1ccc(Cl)cc1NC(=O)c1ccc2[nH]c(Nc3c(Cl)cccc3Cl)nc2c1", "note": "[Example 110, 2-(2,6-Dichloro-phenylamino)-1H-benzimidazole-5-carboxylic acid (5-chloro-2-methyl-phenyl)-amide]", "values": [
      {"measurement": "melting point", "result": "178 to 180", "unit": "°C"},
      {"measurement": "inhibition at 10 µM", "setting": "[1]; inhibition of mPGES-1 at 10 μM", "result": 96, "unit": "%"}
    ]},
    {"compound": "O=C(Nc1ccccc1C(F)(F)F)c1ccc2[nH]c(Nc3c(Cl)cccc3Cl)nc2c1", "note": "[Example 113, 2-(2,6-Dichloro-phenylamino)-1H-benzimidazole-5-carboxylic acid (2-trifluoromethyl-phenyl)-amide]", "values": [
      {"measurement": "melting point", "result": "143 to 145", "unit": "°C"},
      {"measurement": "inhibition at 10 µM", "setting": "[1]; inhibition of mPGES-1 at 10 μM", "result": 91, "unit": "%"}
    ]},
    {"compound": "Cc1c(Cl)cccc1NC(=O)c1ccc2[nH]c(Nc3c(Cl)cccc3Cl)nc2c1", "note": "[Example 280, 2-(2,6-Dichloro-phenylamino)-1H-benzimidazole-5-carboxylic acid (3-chloro-2-methyl-phenyl)-amide]", "values": [
      {"measurement": "melting point", "result": "267 to 269", "unit": "°C"},
      {"measurement": "inhibition at 10 µM", "setting": "[1]; inhibition of mPGES-1 at 10 μM", "result": 100, "unit": "%"}
    ]},
    {"compound": "O=C(Nc1ccccn1)c1ccc2[nH]c(Nc3c(Cl)cccc3Cl)nc2c1", "note": "[Example 293, 2-(2,6-Dichloro-phenylamino)-1H-benzimidazole-5-carboxylic acid pyridin-2-ylamide]", "values": [
      {"measurement": "melting point", "result": "245 to 247", "unit": "°C"},
      {"measurement": "inhibition at 10 µM", "setting": "[1]; inhibition of mPGES-1 at 10 μM", "result": 87, "unit": "%"}
    ]},
    {"compound": "Cn1c(Nc2c(Cl)cccc2Cl)nc2cc(C(=O)Nc3cccc(Cl)c3)ccc21", "note": "[Example 297, 2-(2,6-Dichloro-phenylamino)-1-methyl-1H-benzimidazole-5-carboxylic acid (3-chloro-phenyl)-amide]", "values": [
      {"measurement": "melting point", "result": "175 to 176", "unit": "°C"},
      {"measurement": "inhibition at 10 µM", "setting": "[1]; inhibition of mPGES-1 at 10 μM", "result": 97, "unit": "%"}
    ]},
    {"compound": "COCCOc1cccc(NC(=O)c2ccc3c(c2)nc(Nc2c(Cl)cccc2Cl)n3C)n1", "note": "[Example 302, 2-(2,6-Dichloro-phenylamino)-1-methyl-1H-benzimidazole-5-carboxylic acid [6-(2-methoxy-ethoxy)-pyridin-2-yl]-amide]", "values": [
      {"measurement": "melting point", "result": "185 to 187", "unit": "°C"},
      {"measurement": "inhibition at 10 µM", "setting": "[1]; inhibition of mPGES-1 at 10 μM", "result": 86, "unit": "%"}
    ]},
    {"compound": "O=C(Nc1ccc(Br)cn1)c1ccc2[nH]c(Nc3c(Cl)cccc3Cl)nc2c1", "note": "[Example 303, 2-(2,6-Dichloro-phenylamino)-1H-benzimidazole-5-carboxylic acid (5-bromo-pyridin-2-yl)-amide]", "values": [
      {"measurement": "melting point", "result": "183 to 185", "unit": "°C"},
      {"measurement": "inhibition at 10 µM", "setting": "[1]; inhibition of mPGES-1 at 10 μM", "result": 90, "unit": "%"}
    ]},
    {"compound": "O=C(Nc1cc(C(F)(F)F)ccn1)c1ccc2[nH]c(Nc3c(Cl)cccc3Cl)nc2c1", "note": "[Example 304, 2-(2,6-Dichloro-phenylamino)-1H-benzimidazole-5-carboxylic acid (4-trifluoromethyl-pyridin-2-yl)-amide]", "values": [
      {"measurement": "melting point", "result": "179 to 182", "unit": "°C"},
      {"measurement": "inhibition at 10 µM", "setting": "[1]; inhibition of mPGES-1 at 10 μM", "result": 98, "unit": "%"}
    ]},
    {"compound": "O=C(Nc1nc(C(F)(F)F)cs1)c1ccc2[nH]c(Nc3c(Cl)cccc3Cl)nc2c1", "note": "[Example 319, 2-(2,6-Dichloro-phenylamino)-1H-benzimidazole-5-carboxylic acid (4-trifluoro-methyl-thiazol-2-yl)-amide]", "values": [
      {"measurement": "melting point", "result": "301 to 303", "unit": "°C"},
      {"measurement": "inhibition at 10 µM", "setting": "[1]; inhibition of mPGES-1 at 10 μM", "result": 100, "unit": "%"}
    ]},
    {"compound": "Cc1ccnc(NC(=O)c2ccc3c(c2)nc(Nc2c(Cl)cccc2Cl)n3C)c1", "note": "[Example 335, 2-(2,6-Dichloro-phenylamino)-1-methyl-1H-benzimidazole-5-carboxylic acid (4-methyl-pyridin-2-yl)-amide]", "values": [
      {"measurement": "melting point", "result": "157 to 159", "unit": "°C"},
      {"measurement": "inhibition at 10 µM", "setting": "[1]; inhibition of mPGES-1 at 10 μM", "result": 95, "unit": "%"}
    ]},
    {"compound": "O=C(NCc1ccccc1C(F)(F)F)c1cc(Br)c2[nH]c(Nc3c(Cl)cccc3Cl)nc2c1", "note": "[Example 350, 7-Bromo-2-(2,6-dichloro-phenylamino)-1H-benzimidazole-5-carboxylic acid 2-trifluoromethyl-benzylamide]", "values": [
      {"measurement": "melting point", "result": "176 to 178", "unit": "°C"},
      {"measurement": "inhibition at 10 µM", "setting": "[1]; inhibition of mPGES-1 at 10 μM", "result": 99, "unit": "%"}
    ]},
    {"compound": "Cn1c(Nc2c(Cl)cccc2Cl)nc2cc(C(=O)Nc3ccc(C#N)cn3)ccc21", "note": "[Example 544, N-(5-Cyanopyridin-2-yl)-2-(2,6-dichlorophenylamino)-1-methyl-1H-benzimidazole-5-carboxamide]", "values": [
      {"measurement": "melting point", "result": "234 to 236", "unit": "°C"},
      {"measurement": "inhibition at 10 µM", "setting": "[1]; inhibition of mPGES-1 at 10 μM", "result": 91, "unit": "%"}
    ]},
    {"compound": "COc1cc2c(cc1C(=O)NC1CCC(C)(C)CC1)nc(Nc1c(Cl)ccc(C)c1F)n2C", "note": "[Example 650, 2-(6-Chloro-2-fluoro-3-methyl-phenylamino)-6-methoxy-N-(4,4-dimethyl-cyclohex-1-yl)-1-methyl-1H-benzimidazole-5-carboxamide]", "values": [
      {"measurement": "inhibition at 1 µM", "setting": "[1]", "result": 100, "unit": "%"}
    ]},
    {"compound": "COc1cc2c(cc1C(=O)NC1CCCCC1)nc(Nc1c(Cl)ccc(C)c1F)n2C", "note": "[Example 651, 2-(6-Chloro-2-fluoro-3-methyl-phenylamino)-6-methoxy-N-cyclohexyl-1-methyl-1H-benzimidazole-5-carboxamide]", "values": [
      {"measurement": "inhibition at 1 µM", "setting": "[1]", "result": 100, "unit": "%"}
    ]},
    {"compound": "COc1cc2c(cc1C(=O)NC1CCC(C)(C)CC1)nc(Nc1c(F)c(F)cc(F)c1F)n2C", "note": "[Example 652, 2-(2,3,5,6-tetrafluoro-phenylamino)-6-methoxy-N-(4,4-dimethy-cyclohex-1-yl)-1-methyl-1H-benzimidazole-5-carboxamide]", "values": [
      {"measurement": "inhibition at 1 µM", "setting": "[1]", "result": 94, "unit": "%"}
    ]},
    {"compound": "Cc1ccc(Cl)c(Nc2nc3cc(C(=O)N[C@H]4CC[C@H](C(F)(F)F)CC4)c(F)cc3[nH]2)c1F", "note": "[Example 653, 2-(6-Chloro-2-fluoro-3-methyl-phenylamino)-N-(trans-4-trifluoromethyl-cyclohex-1-yl)-6-fluoro-1H-benzimidazole-5-carboxamide]", "values": [
      {"measurement": "inhibition at 1 µM", "setting": "[1]", "result": 92, "unit": "%"}
    ]},
    {"compound": "COc1cc2c(cc1C(=O)Nc1ccc(Br)cc1)nc(Nc1cccc(Cl)c1C(F)(F)F)n2C", "note": "[Example 654]", "values": [
      {"measurement": "inhibition at 1 µM", "setting": "[1]", "result": 99, "unit": "%"}
    ]},
    {"compound": "Cc1cc2[nH]c(Nc3c(Cl)cccc3Cl)nc2cc1C(=O)NC1CCC(C(C)(C)C)CC1", "note": "(centres unmarked) [compound 148]", "values": [
      {"measurement": "inhibition at 10 µM", "setting": "[1]; inhibition of mPGES-1 at 10 μM", "result": 100, "unit": "%"}
    ]},
    {"compound": "Cn1c(Nc2c(Cl)cccc2Cl)nc2cc(C(=O)NC3CCCCC3)ccc21", "note": "[compound 317]", "values": [
      {"measurement": "inhibition at 10 µM", "setting": "[1]; inhibition of mPGES-1 at 10 μM", "result": 98, "unit": "%"}
    ]},
    {"compound": "Cc1cccc(C)c1Nc1nc2cc(C(=O)Nc3ccc(Br)cc3)ccc2n1C", "note": "[compound 318]", "values": [
      {"measurement": "inhibition at 10 µM", "setting": "[1]; inhibition of mPGES-1 at 10 μM", "result": 100, "unit": "%"}
    ]},
    {"compound": "Cc1cccc(NC(=O)c2ccc3c(c2)nc(Nc2c(Cl)cccc2Cl)n3C)n1", "note": "[compound 328]", "values": [
      {"measurement": "inhibition at 10 µM", "setting": "[1]; inhibition of mPGES-1 at 10 μM", "result": 95, "unit": "%"}
    ]},
    {"compound": "O=C(Nc1ccc(Br)cc1)c1ccc2[nH]c(Nc3c(F)cccc3Cl)nc2c1", "note": "[compound 334]", "values": [
      {"measurement": "inhibition at 10 µM", "setting": "[1]; inhibition of mPGES-1 at 10 μM", "result": 100, "unit": "%"}
    ]},
    {"compound": "Cc1cccc(NC(=O)c2ccc3[nH]c(Nc4c(Cl)cccc4Cl)nc3c2)n1", "note": "[compound 336]", "values": [
      {"measurement": "inhibition at 10 µM", "setting": "[1]; inhibition of mPGES-1 at 10 μM", "result": 85, "unit": "%"}
    ]},
    {"compound": "O=C(Nc1cccc(Cl)c1)c1cc(Br)c2[nH]c(Nc3c(Cl)cccc3Cl)nc2c1", "note": "[compound 351]", "values": [
      {"measurement": "inhibition at 10 µM", "setting": "[1]; inhibition of mPGES-1 at 10 μM", "result": 100, "unit": "%"}
    ]},
    {"compound": "CN(C)c1ccnc(NC(=O)c2ccc3c(c2)nc(Nc2c(Cl)cccc2Cl)n3C)c1", "note": "[compound 559]", "values": [
      {"measurement": "inhibition at 10 µM", "setting": "[1]; inhibition of mPGES-1 at 10 μM", "result": 85, "unit": "%"}
    ]},
    {"compound": "Cc1cc(NC(=O)c2cc3nc(Nc4c(Cl)cc(F)cc4Cl)[nH]c3cc2OCC(F)(F)F)nc(C(F)(F)F)c1", "note": "[compound 576]", "values": [
      {"measurement": "inhibition at 10 µM", "setting": "[1]; inhibition of mPGES-1 at 10 μM", "result": 96, "unit": "%"}
    ]},
    {"compound": "N-(4-Bromophenyl)-1-methyl-2-(2-(4-morpholino)phenylamino)-1H-benzimidazole-5-carboxamide [Example 555]", "values": [
      {"measurement": "% inhib.", "setting": "[1]; inhibition of mPGES-1 at 10 μM", "result": 70, "unit": "%"}
    ]}
  ]
}
